Paper PMC7665024, “Anti-apoptotic BCL-2 regulation by changes in dynamics of its long unstructured loop” (Communications Biology, 2020)

Tests used:
BAX [1] = experiment: FRAP-GUV pore-forming activity of BAX, 70-kDa F-dextran; assay type: biochemical, mouse; design: FRAP pore-forming activity / FRAP pore-forming activity, average / p (FRAP-70k-p), Average: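 unitless ratio D/D0 relative to diffusion coefficient after Triton X-100 disruption of GUVs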
Experimental: (§1) Briefly, GUVs were incubated with the proteins of interest over a period of time (Fig. 2c), followed by photobleaching within individual GUVs. A series of fluorescent images were collected over time after the photobleaching and then analyzed to yield the diffusion coefficients of Fluor molecules (including FITC-labeled 70-kDa, and Alexa-647-labeled 10-kDa probes) using the theoretical approach detailed in the “Methods” section. As Fluor molecules are homogeneously dispersed in the solution (outside and inside of GUVs) before the incubation with BAX and activators, it is reasonable to expect that the larger the induced pore area on the surface of a GUV, the greater the diffusion coefficient. Thus, the diffusion coefficient is directly related to the pore-forming activity of activated BAX. As the pore-forming activity is proportional to the concentration of BAX[18], we fixed the total amount of added BAX in all of the measurements below (see the “Methods” section).
(§2) Full-length BAX and variants were prepared as previously described[18],[22],[35]. Mouse BAX was cloned into pTYB1 vector (New England Biolabs, Inc.), resulting pTYB1-BAX construct. The pTYB1-BAX construct encoding a fusion protein of BAX with chitin-binding peptide was separated by a self-cleavable intein tag to obtain a full-length BAX. Wild-type BAX has two native cysteine residues at 62 and 126. Cysteine-free construct (C62S/C126S) was used to prepare single-cysteine BAX variants for conjugating fluorescence probes (e.g., BAX136C in Fig. 1d). Point mutations of recombinant BAX were generated using a QuikChange mutagenesis kit. Proteins were expressed in E. coli (ER2566) strain (New England Biolabs, Inc.) and purified without detergent. Bacterial cultures were grown at 37 °C in LB medium containing 0.1 g/L ampicillin to reach an OD600 of 1.0. BAX expression was induced by addition of 0.3 mM IPTG at 30 °C for 6−8 h. The cells were harvested by centrifugation and resuspended in ice-cold lysis buffer (20 mM Tris–HCl, pH 7.0, 500 mM NaCl and 1 mM PMSF). The resuspended pellet was sonicated on ice for 30 min, followed by centrifugation at 12,800 × g for 50 min. […] The resins were incubated in a pre-equilibrated buffer (20 mM sodium phosphate, pH 8.0, 100 mM NaCl, 60 mM dithiothreitol (DTT)) for 48 h. Proteins were eluted from column and further purified by a SEC using a HiLoad 16/60 Superdex 75 column (GE Healthcare) pre-equilibrated in PB buffer (20 mM sodium phosphate, pH 7.4, 100 mM NaCl). Purified proteins were confirmed by SDS–PAGE with Coomassie blue staining. Protein concentration was determined using absorption spectroscopy at 280 nm.
(§3) All lipids used were purchased from Avanti Polar Lipids. […] Texas Red 1,2-dihexadecanoyl-sn-glycero-3-phosphoethanolamine (TR-DPPE) (Invitrogen) of 0.05% was added to the lipid mixture for virtualization of GUV[18],[26],[27]. GUVs were prepared with the gel-assisted swelling on a polyvinyl alcohol (PVA) gel[39]. A 5% (w/w) solution of PVA (MW 145,000) was prepared by stirring PVA in ddH2O while heating at 90 °C. PVA solution was spread on a microscope coverslip (18 × 18 mm, Matsunami, Japan) and then dried at 50 °C. Lipid mixture (1 mg/mL) dissolved in chloroform were spread on the dry PVA film and placed under vacuum for 30 min to evaporate the solvent. Lipids were rehydrated for 1 h in PB buffer. The resulting GUVs were transferred to an Eppendorf tube using blunt tips.
(§4) FRAP measurements were performed as described previously. […] All reactions were at room temperature and the final volume was 200 μL.

BAX [2] = experiment: FRAP-GUV pore-forming activity of BAX, 10-kDa F-dextran; assay type: biochemical, mouse; design: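 unitless ratio D/D0 relative to diffusion coefficient after Triton X-100 disruption of GUVs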; details: 10 kDa F-dextran
Experimental: as §1, §2, §3, §4

With `CC1(C)CCC(CN2CCN(c3ccc(C(=O)NS(=O)(=O)c4ccc(NCC5CCOCC5)c([N+](=O)[O-])c4)c(Oc4cnc5[nH]ccc5c4)c3)CC2)=C(c2ccc(Cl)cc2)C1` [ABT-199, Venetoclax, reference compound] the “pore-forming activity / effect on BAX-induced membrane pores on GUV (in words)” value (BAX [1]; 10- and 70-kDa F-dextran, BAX 1 µM, BimBH3 2 µM, BCL-2 1 µM, ABT-199 30 µM, room temperature, Fig. 2c) was “BimBH3 is released from EEE to induce BAX activation and membrane pores”, the “FRAP pore-forming activity, average” value (BAX [1]; 70 kDa F-dextran, mean of trials) was 0.0000762 and the FRAP pore-forming activity (BAX [1]; 70 kDa F-dextran, trial1) was 0.0000000. The FRAP pore-forming activity (BAX [1]; 70 kDa F-dextran, trial2) was 0.000165, the FRAP pore-forming activity (BAX [1]; 70 kDa F-dextran, trial3) was 0.0000000 and the FRAP pore-forming activity (BAX [1]; 70 kDa F-dextran, trial4) was 0.000165. It also gave an FRAP pore-forming activity (BAX [1]; 70 kDa F-dextran, trial5) of 0.0000000, an FRAP pore-forming activity (BAX [1]; 70 kDa F-dextran, trial6) of 0.0000000 and an FRAP pore-forming activity (BAX [1]; 70 kDa F-dextran, trial7) of 0.000165. For the same compound, the FRAP pore-forming activity (BAX [1]; 70 kDa F-dextran, trial8) was 0.0000000, the FRAP pore-forming activity (BAX [1]; 70 kDa F-dextran, trial9) was 0.0000000 and the FRAP pore-forming activity (BAX [1]; 70 kDa F-dextran, trial10) was 0.0000000. The FRAP pore-forming activity (BAX [1]; 70 kDa F-dextran, trial11) was 0.000165, the FRAP pore-forming activity (BAX [1]; 70 kDa F-dextran, trial12) was 0.000165 and the FRAP pore-forming activity (BAX [1]; 70 kDa F-dextran, trial13) was 0.000165. For the same compound, the “FRAP pore-forming activity, average” value (BAX [2]; mean of trials) was 0.0002024, the FRAP pore-forming activity (BAX [2]; trial1) was 0.0000000 and the FRAP pore-forming activity (BAX [2]; trial2) was 0.0001754. The FRAP pore-forming activity (BAX [2]; trial3) was 0.0000000, the FRAP pore-forming activity (BAX [2]; trial4) was 0.0001754 and the FRAP pore-forming activity (BAX [2]; trial5) was 0.0000000. The FRAP pore-forming activity (BAX [2]; trial6) was 0.0000000, the FRAP pore-forming activity (BAX [2]; trial7) was 0.0001754 and the FRAP pore-forming activity (BAX [2]; trial8) was 0.0008772. The FRAP pore-forming activity (BAX [2]; trial9) was 0.0007018, the FRAP pore-forming activity (BAX [2]; trial10) was 0.0000000 and the FRAP pore-forming activity (BAX [2]; trial11) was 0.0001754. The FRAP pore-forming activity (BAX [2]; trial12) was 0.0001754 and the FRAP pore-forming activity (BAX [2]; trial13) was 0.0001754.
